As usually defined, the pIC50 is the negative decadic logarithm of the IC50, by convention in mol/L. A lower pIC50 goes with a high IC50. For orientation: pEC50 means −log10 of the EC50, conventionally taken in molar units. High values mean a low EC50, low ones a high EC50.

pEC50, pIC50: −log10 of the molar value.

Assay [1] concerns HL-60. In words: Antiproliferative activity against human HL60 cells after 48 hrs by MTT assay. To be noted: HL-60, 48 h. Format: functional, cell-based. (Tetrazolium dyes change colour on reduction, which living cells bring about.)
Assay [2] in a line: Inhibition of polymerization of tubulin by turbidimetry.
Assay [3] has as its system HL-60. In words: Induction of apoptosis in human HL60 cells after 48 hrs using propidium iodide by flow cytometry. It is filed as functional, cell-based. To be noted: for pEC50: HL-60, 48 h. (In general: A flow cytometer gives signals particle by particle.)
The test system of assay [4] is HL-60. In words: Ratio of compound EC50 to E7010 EC50 for human HL60 cells. Format: functional.
Assay [5] has as its system HL-60. In words: Induction of apoptosis in human HL60 cells assessed as fractions of fragmented DNA at 0.05 uM after 48 hrs using propidium iodide staining by flow cytometry (reference value: 1.66%). Format: functional.
Assay [6] concerns HL-60. The assay is described as follows: Induction of apoptosis in human HL60 cells assessed as fractions of fragmented DNA at 0.1 uM after 48 hrs using propidium iodide staining by flow cytometry (reference value: 1.66%). Format: functional.
In assay [7] the test system is HL-60. The assay is described as follows: Induction of apoptosis in human HL60 cells assessed as fractions of fragmented DNA at 0.25 uM after 48 hrs using propidium iodide staining by flow cytometry (reference value: 1.66%). Format: functional.
Assay [8] relates to HL-60. In words: Induction of apoptosis in human HL60 cells assessed as fractions of fragmented DNA at 0.1 uM after 24 hrs using propidium iodide staining by flow cytometry (reference value: 0.53%). Format: functional.
Assay [9] concerns HL-60. In words: Cell cycle arrest in human HL60 cells assessed as accumulation at G0/G1 phase at 0.1 uM after 24 hrs using propidium iodide staining by flow cytometry (reference value: 55.47%). It is filed as functional.
The test system of assay [10] is HL-60. The assay is described as follows: Cell cycle arrest in human HL60 cells assessed as accumulation at S phase at 0.1 uM after 24 hrs using propidium iodide staining by flow cytometry (reference value: 17.62%). Format: functional.
The test system of assay [11] is HL-60. The assay is described as follows: Cell cycle arrest in human HL60 cells assessed as accumulation at G2/M phase at 0.1 uM after 24 hrs using propidium iodide staining by flow cytometry (reference value: 22.26%). It is filed as functional.
Assay [12] concerns HL-60. The assay is described as follows: Induction of apoptosis in human HL60 cells assessed as fractions of fragmented DNA at 0.5 uM after 48 hrs using propidium iodide staining by flow cytometry (reference value: 1.66%). Format: functional.
Assay [13] concerns HL-60. In words: Induction of apoptosis in human HL60 cells assessed as fractions of fragmented DNA at 1 uM after 48 hrs using propidium iodide staining by flow cytometry (reference value: 1.66%). It is filed as functional.
The subject of assay [14] is HL-60. In words: Induction of apoptosis in human HL60 cells assessed as fractions of fragmented DNA at 0.5 uM after 24 hrs using propidium iodide staining by flow cytometry (reference value: 0.53%). Format: functional.
The test system of assay [15] is HL-60. In words: Cell cycle arrest in human HL60 cells assessed as accumulation at G0/G1 phase at 0.5 uM after 24 hrs using propidium iodide staining by flow cytometry (reference value: 55.47%). Format: functional.
Assay [16] deals with HL-60. In words: Cell cycle arrest in human HL60 cells assessed as accumulation at S phase at 0.5 uM after 24 hrs using propidium iodide staining by flow cytometry (reference value: 17.62%). It is filed as functional.
The test system of assay [17] is HL-60. The assay is described as follows: Cell cycle arrest in human HL60 cells assessed as accumulation at G2/M phase at 0.5 uM after 24 hrs using propidium iodide staining by flow cytometry (reference value: 22.26%). Format: functional.

Turning to `COc1cc(C2C=C(c3ccccc3)Nc3ncnn32)cc(OC)c1OC` (configuration not stated), the pIC50 with HL-60 [1] was 6.77; in [2] it was 4.86. Further, the Activity result in the assay on HL-60 [3] was “Dose-dependent effect”; in the assay with HL-60 [5], 4.32%; in the assay with HL-60 [6] it was 4.06%; with HL-60 [7] it was 60.88%; in the assay on HL-60 [8], 0.81%; with HL-60 [9], 53.51%. For the same molecule, the results for the Activity in the assay on HL-60 [10] and in the assay on HL-60 [11] were 15.92% and 25.82%, respectively. Besides, the pEC50 in the assay with HL-60 [3] was 6.66. The “Ratio EC50” value in the assay on HL-60 [4] is 2.
For the molecule `CCc1ccc(C2=CC(c3cc(OC)c(OC)c(OC)c3)n3ncnc3N2)cc1` (configuration not stated), the pIC50 in the assay on HL-60 [1] was 6.43; in [2], below 4.60.
`COc1ccccc1NC(=O)CSc1nnc(-c2cc(OC)c(OC)c(OC)c2)n1-c1ccc(C)cc1` showed a pIC50 with HL-60 [1] of 5.62.
Regarding `COc1cc(C2C=C(c3ccc(Cl)cc3)Nc3ncnn32)cc(OC)c1OC` (configuration not stated), the pIC50 in the assay with HL-60 [1] is 6.41; in assay [2], below 4.60.
The matching figures for `COc1ccc(C2=CC(c3cc(OC)c(OC)c(OC)c3)n3ncnc3N2)cc1OC` (configuration not stated): 6.47 and below 4.62.
`COc1cc(C(=O)N2c3ccccc3CC2C)cc(OC)c1OC` (configuration not stated): the negative-log IC50 (pIC50) with HL-60 [1] was 5.49.
Consider `COc1cc(C(=O)/C(=C/c2cccnc2)c2nc3ccccc3o2)cc(OC)c1OC`, for which the negative-log IC50 (pIC50) in the assay on HL-60 [1] was 5.77.
In the assay with HL-60 [1], `COc1ccc(/C=C(/C(=O)c2cc(OC)c(OC)c(OC)c2)c2nc3ccccc3o2)cc1` showed a pIC50 of 5.62.
For `COc1ccc(C2=CC(c3cc(OC)c(OC)c(OC)c3)n3ncnc3N2)cc1` (configuration not stated), the pIC50 in the assay on HL-60 [1] is 6.72; in assay [2], 4.98. Also, the Activity entry is “Dose-dependent effect” in the assay on HL-60 [3]; 4.94% in the assay on HL-60 [5]; 77.49% in the assay with HL-60 [6]; 92.36% in the assay with HL-60 [7]; 0.93% in the assay with HL-60 [8]; 51.67% in the assay with HL-60 [9]. For the same molecule, the values for the Activity in the assay with HL-60 [10] and in the assay with HL-60 [11] were 18.82% and 24.39%, respectively. In addition, the negative logarithm of the EC50 (pEC50) in the assay with HL-60 [3] is 7.10. Also, the “Ratio EC50” value in the assay on HL-60 [4] came out at 2.
In the case of `COc1cc(C(=O)c2c(C)cn3c(CCC#N)cccc23)cc(OC)c1OC`, the pIC50 is 5.85 in the assay with HL-60 [1] and 5.30 in [2].
As for `COc1cc(C(=O)N2CCc3ccccc32)cc(OC)c1OC`, the pIC50 in the assay on HL-60 [1] is 5.70.
In turn, `COc1cc(C(=O)N2CCCc3ccccc32)cc(OC)c1OC` showed a pIC50 with HL-60 [1] of 5.70.
With `COc1cc(/C=C(/C(=O)c2cc(OC)c(OC)c(OC)c2)c2nc3ccccc3o2)cc(OC)c1OC`, the pIC50 in the assay on HL-60 [1] is 5.77.
As to `COc1cc(C2C=C(c3ccc(C)cc3)Nc3ncnn32)cc(OC)c1OC` (configuration not stated), the figures for the pIC50 (in the assay on HL-60 [1]; in assay [2]) were 6.89 and 4.89, respectively. The Activity entry with HL-60 [3] was “Dose-dependent effect”; in the assay with HL-60 [5], 4.61%; with HL-60 [6], 89.85%; in the assay with HL-60 [7], 90.56%; in the assay on HL-60 [8], 22.94%; in the assay with HL-60 [9] it was 9.7%. In addition, the Activity in the assay with HL-60 [10] came to 16.5%; with HL-60 [11] it was 48.64%. Besides, the pEC50 with HL-60 [3] is 7.15. Further, the “Ratio EC50” value in the assay with HL-60 [4] was 2.
For the molecule `COc1cc(C(=O)c2c(-c3ccccc3)cc3ccccn23)cc(OC)c1OC`, the pIC50 with HL-60 [1] is 6.22; in assay [2], 4.70.
On to `COc1cc(C2C=C(c3cccs3)Nc3ncnn32)cc(OC)c1OC` (configuration not stated), for which the pIC50 in the assay on HL-60 [1] was 7.00; in [2] it was 4.89. The Activity result was “Dose-dependent effect” in the assay with HL-60 [3]; 6.03% in the assay on HL-60 [5]; 10.35% in the assay with HL-60 [12]; 85.69% in the assay with HL-60 [13]; 0.48% with HL-60 [14]; 53.87% with HL-60 [15]. In addition, the results for the Activity with HL-60 [16] and in the assay with HL-60 [17] were 15.16% and 25.93%, respectively. In addition, the pEC50 in the assay with HL-60 [3] is 6.11.
In turn, `COc1cc(/C=C(/C(=O)O)c2ccc(-c3ccccc3)cc2)cc(OC)c1OC` had a pIC50 in the assay with HL-60 [1] of 5.62.
As to `COc1cc(C2C=C(c3cccc(NC(C)=O)c3)Nc3ncnn32)cc(OC)c1OC` (configuration not stated), the values for the pIC50 (in the assay with HL-60 [1]; in [2]) were 6.48 and below 4.60, respectively.

Values taken from ChEMBL document CHEMBL1250532, “Structure-based virtual screening of novel tubulin inhibitors and their characterization as anti-mitotic agents” (Bioorg Med Chem, 2010).
